Results on six compounds are retold here after BindingDB's records for doi:10.1021/bi0488799 (Glaxosmithkline, 2004).

What all share (conditions): pH 5.5; 30 °C
In test [1] the target is T1, Dimer of Gag-Pol polyprotein [489-587,L499I,L508Q,K509R,E524D,M525I,S526N,M535I,I539V,I543V,I551V,L552P,A560V,V571A,L579M] (Human immunodeficiency virus 1, UniProt P04585, A560V/E524D/I539V/I543V/I551V/K509R/L499I/L508Q/L552P/L579M/M525I/M535I/S526N/V571A).
T1 construct: 489-587
The test is described as follows: Fluorometric Activity Assay. As for the experimental part: (§1) Enzymatic activity was determined with fluorogenic substrate in the presence and absence of inhibitor. The fluorescence increase due to hydrolysis of the substrate was monitored with an excitation filter of wavelength 340 nm and an emission filter of wavelength 420. Values for the inhibition constants (Ki) were determined by conventional steady-state kinetic techniques.

Test [2] concerns the target T2, Dimer of Gag-Pol polyprotein [489-587,I539V] (Human immunodeficiency virus 1, UniProt P04585, I539V).
T2 construct: 489-587
The test is described as follows: Kinetic Competitive Displacement Assay. As for the experimental part:
The method was a competitive displacement assay used to determine binding affinities of other inhibitors relative to that of GW0385. The inhibitor of unknown affinity was used to displace [3H]GW0385 from enzyme-bound [3H]GW0385 (E[3H]GW0385). From the concentration of E[3H]GW0385 at equilibrium, the concentrations of enzyme-bound and free inhibitors were calculated, and the ratio of the Ki value of the unknown to that of GW0385 was determined (Ki,unknown/Ki,GW0385).

Test [3] addresses T3, Dimer of Gag-Pol polyprotein [489-587,M535I,L552P,A560V,V571F,I573V] (Human immunodeficiency virus 1, UniProt P04585, A560V/I573V/L552P/M535I/V571F).
T3 construct: 489-587
The experiment in a line: Fluorometric Activity Assay. The method, then:
as §1

Test [4] deals with T4, Dimer of Gag-Pol polyprotein [489-587] (Human immunodeficiency virus 1, UniProt P12497).
T4 construct: 489-587
The test is described as follows: Fluorometric Activity Assay. The method, then: as §1

Test [5] concerns the target T1, Dimer of Gag-Pol polyprotein [489-587,L499I,L508Q,K509R,E524D,M525I,S526N,M535I,I539V,I543V,I551V,L552P,A560V,V571A,L579M]. The experiment in a line: GW0385 Assay. As for the experimental part:
(§2) The assay method employed kinetic determinations of values for k1 and k-1, from which value of inhibition constant (Ki ) was determined (k-1/k1). The k1 is calculated from spectrofluorometric data in the presence of saquinavir. The k-1 is calculated from the time course for displacement of [3H]GW0385 from E[3H]GW0385 by nonlabeled GW0385.

Test [6] addresses T2, Dimer of Gag-Pol polyprotein [489-587,I539V]. The experiment in a line: GW0385 Assay. The method, then:
as §2

As a reminder, the Ki is a dissociation constant, usually derived from enzyme kinetics or from competition with a known ligand. Lower therefore signals higher affinity. For `CC(C)CN(C[C@@H](O)[C@H](Cc1ccc(OCc2ccccn2)cc1)NC(=O)O[C@H]1CO[C@H]2OCC[C@H]21)S(=O)(=O)c1ccc2c(c1)OCO2` [(3R,3aS,6aR)-hexahydrofuro[2,3-b]furan-3-yl N-[(2S,3R)-4-[2H-1,3-benzodioxole-5-(2-methylpropyl)sulfonamido]-3-hydroxy-1-[4-(pyridin-2-ylmethoxy)phenyl]butan-2-yl]carbamate], the Ki amounted to 1.7 pM in test [1] and 2.6 pM in test [2].
As to `CC(C)CN(C[C@@H](O)[C@H](Cc1ccc(OCCc2cccs2)cc1)NC(=O)O[C@H]1CO[C@H]2OCC[C@H]21)S(=O)(=O)c1ccc2c(c1)OCO2` [(3R,3aS,6aR)-hexahydrofuro[2,3-b]furan-3-yl N-[(2S,3R)-4-[2H-1,3-benzodioxole-5-(2-methylpropyl)sulfonamido]-3-hydroxy-1-{4-[2-(thiophen-2-yl)ethoxy]phenyl}butan-2-yl]carbamate], the Ki in test [1] worked out at 2.4 pM; in test [2], 3.9 pM.
For `CNC(=O)OCCCC(C)(C)CN(C[C@@H](O)[C@H](Cc1ccccc1)NC(=O)O[C@H]1CO[C@H]2OCC[C@H]21)S(=O)(=O)c1ccc2c(c1)OCO2` [(3R,3aS,6aR)-hexahydrofuro[2,3-b]furan-3-yl N-[(2S,3R)-4-[2H-1,3-benzodioxole-5-({2,2-dimethyl-5-[(methylcarbamoyl)oxy]pentyl})sulfonamido]-3-hydroxy-1-phenylbutan-2-yl]carbamate], the figures for the Ki in test [1], in test [3] and in test [2] were 54.4 pM, 25 pM and 27 pM, respectively.
With `CCOC(=O)NCCCCC(C)(C)CN(C[C@@H](O)[C@H](Cc1ccccc1)NC(=O)O[C@H]1CO[C@H]2OCC[C@H]21)S(=O)(=O)c1ccc2c(c1)OCO2` [(3R,3aS,6aR)-hexahydrofuro[2,3-b]furan-3-yl N-[(2S,3R)-4-[2H-1,3-benzodioxole-5-({6-[(ethoxycarbonyl)amino]-2,2-dimethylhexyl})sulfonamido]-3-hydroxy-1-phenylbutan-2-yl]carbamate], the Ki was 1.2 pM in test [1], 4.3 pM in test [3] and 4.6 pM in test [2].
In test [4], `CC(C)CN(C[C@@H](O)[C@H](Cc1ccccc1)NC(=O)O[C@H]1CCOC1)S(=O)(=O)c1ccc(N)cc1` [VX-478] returned an inhibition constant (Ki) of 57 pM.
For the compound `Cc1nc(COc2ccc(C[C@H](NC(=O)O[C@H]3CO[C@H]4OCC[C@H]43)[C@H](O)CN(CC(C)C)S(=O)(=O)c3ccc4c(c3)OCO4)cc2)cs1` [[3H]GW0385], the results for the Ki in test [5] and in test [6] were 3.4 pM and 2 pM, respectively.
